US7601856B2 (Wyeth, priority 2006, dated 2009)

Tested on: isolated rat bladder strips
Test: Inhibition of contractions of isolated rat bladder strips
Conditions: 0.5 h
Protocol: The compounds of the examples were tested to determine their ability to inhibit contractions of isolated rat bladder strips. See Foster, C. […] Malmgren, A. et al. J.Urol.
Male Sprague-Dawley rats (150-200 g) were obtained from ACE animal suppliers. Animals were allowed free access to food and water.
Animals were euthanized by CO2 asphyxiation followed by a bilateral thoracotomy. […] The bladder was opened and then cut into strips 1-2 mm in width and 7-10 mm in length. The strips were subsequently suspended in a 10 ml tissue bath under an initial resting tension of 1.5 g. The strips were held in place by two surgical clips one of which was attached to a fixed hook while the other was attached to an isometric force transducer. […] The carbachol was then washed out and the tissue allowed to relax to its resting level of activity. Following a further 30 minute period of recovery an additional 15 mM KCl were introduced into the tissue bath. […] Following stabilization of this enhanced level of contractile activity, incremental increases in the concentration of test compound or vehicle were introduced into the tissue bath. Contractile activity was measured for each compound or vehicle concentration during the last minute of a 30 minute challenge.
Isometric force developed by the bladder strips was measured using a force transducer and recorded on a polygraph. Contractile activity was assessed by measuring either the average amplitude of the contractions (baseline to peak force) occurring during a one minute period or, preferably, by integrating the contractile activity with respect to time (one minute measuring period).
The percentage inhibition of contractile activity evoked by each concentration of a given test compounds was used to generate a concentration-response curve.

| Structure (SMILES) | IC50 [nM] |
| --- | --- |
| O=C(Cc1ccncc1)Nc1ccc2oc3c(c2c1)CCCCCC3 [Example 78, N-(6,7,8,9,10,11-HEXAHYDROBENZO[B]CYCLOOCTA[D]FURAN-2-YL)-2-PYRIDIN-4-YLACETAMIDE] | 10000 to 14000 |
| O=C(CN1CCC2(CC1)OCCO2)Nc1ccc2oc3c(c2c1)CCCCC3 [Example 43, 2-(1,4-DIOXA-8-AZASPIRO[4.5]DEC-8-YL)-N-7,8,9,10-TETRAHYDRO-6H-BENZO[b]CYCLOHEPTA[D]FURAN-2-YLACETAMIDE] | 1000 to 3000 |
| O=C(CN1CCOCC1)Nc1ccc2oc3c(c2c1)CCCCC3 [Example 40, 2-MORPHOLIN-4-YL-N-7,8,9,10-TETRAHYDRO-6H-BENZO[b]CYCLOHEPTA[D]FURAN-2-YLACETAMIDE] | 1000 to 3000 |
| O=C(CN1CCN(c2ncccn2)CC1)Nc1ccc2oc3c(c2c1)CCCCC3 [Example 50, 2-(4-PYRIMIDIN-2-YLPIPERAZIN-1-YL)-N-7,8,9,10-TETRAHYDRO-6H-BENZO[B]CYCLOHEPTA[D]FURAN-2-YLACETAMIDE] | 3000 to 5000 |

Same assay, conditions: 0.5 h, concentration eliciting 50% inhibition of pre-drug contractile activity, strips stimulated with additional 15 mM KCl, 30 minute challenge per concentration, read-out: IC50

| Structure (SMILES) | IC50 [nM] |
| --- | --- |
| C[C@@H](OCc1ccccc1)C(NC(=O)OC(C)(C)C)C(=O)Nc1ccc2oc3c(c2c1)CCCCC3 (stereo in doubt) [Example 59, TERT-BUTYL {(1R,2R)-2-(BENZYLOXY)-1-[(7,8,9,10-TETRAHYDRO-6H-BENZO[B]CYCLOHEPTA[D]FURAN-2-YLAMINO)CARBONYL]PROPYL}CARBAMATE] | 1500 to 2000 |
| O=C(CCc1ccccc1)Nc1ccc2oc3c(c2c1)CCCCCC3 [Example 72, N-(6,7,8,9,10,11-HEXAHYDROBENZO[B]CYCLOOCTA[D]FURAN-2-YL)-3-PHENYLPROPANAMIDE] | 800 to 2200 |
| CC(=O)Nc1ccc2oc3c(c2c1)CCCCCC3 [Example 73, N-(6,7,8,9,10,11-HEXAHYDROBENZO[B]CYCLOOCTA[D]FURAN-2-YL)ACETAMIDE] | 400 to 1100 |
| CC(C)(C)OC(=O)N1CCC[C@H]1C(=O)Nc1ccc2oc3c(c2c1)CCCCC3 [Example 54, TERT-BUTYL (2S)-2-[(7,8,9,10-TETRAHYDRO-6H-BENZO[B]CYCLOHEPTA[D]FURAN-2-YLAMINO)CARBONYL]PYRROLIDINE-1-CARBOXYLATE] | 6000 to 8000 |
| C[C@H](NC(=O)OC(C)(C)C)C(=O)Nc1ccc2oc3c(c2c1)CCCCC3 [Example 56, TERT-BUTYL [(1S)-1-METHYL-2-OXO-2-(7,8,9,10-TETRAHYDRO-6H-BENZO[B]CYCLOHEPTA[D]FURAN-2-YLAMINO)ETHYL]CARBAMATE] | 300 to 600 |
| CC(C)(C)c1ccc(C(=O)Nc2ccc3oc4c(c3c2)CCCCC4)cc1 [Example 33, 4-TERT-BUTYL-N-(7,8,9,10-TETRAHYDRO-6H-BENZO[B]CYCLOHEPTA[D]FURAN-2-YL)BENZAMIDE] | 2000 to 3000 |
| O=C(Nc1ccc2oc3c(c2c1)CCCCCC3)c1ccco1 [Example 74, N-(6,7,8,9,10,11-HEXAHYDROBENZO[B]CYCLOOCTA[D]FURAN-2-YL)-2-FURAMIDE] | 10000 to 15000 |
| CCOC(=O)CCC(=O)Nc1ccc2oc3c(c2c1)CCCCC3 [Example 32, ETHYL 4-OXO-4-(7,8,9,10-TETRAHYDRO-6H-BENZO[B]CYCLOHEPTA[D]FURAN-2-YLAMINO)BUTANOATE] | 9000 to 12000 |
| CCCCC(=O)Nc1ccc2oc3c(c2c1)CCCCC3 [Example 31, N-(7,8,9,10-TETRAHYDRO-6H-BENZO[B]CYCLOHEPTA[d]FURAN-2-YL)PENTANAMIDE] | 3000 to 5000 |
| O=C(Nc1ccc2oc3c(c2c1)CCCCCC3)N1CCOCC1 [Example 86, N-(6,7,8,9,10,11-HEXAHYDROBENZO[B]CYCLOOCTA[D]FURAN-2-YL)MORPHOLINE-4-CARBOXAMIDE] | 7000 to 9000 |
| CC(=O)N1CCC[C@H]1C(=O)Nc1ccc2oc3c(c2c1)CCCCC3 [Example 60, 1-ACETYL-N-7,8,9,10-TETRAHYDRO-6H-BENZO[B]CYCLOHEPTA[D]FURAN-2-YL-L-PROLINAMIDE] | 1300 to 2500 |
| O=C(Nc1ccc2oc3c(c2c1)CCCCCC3)c1cccs1 [Example 67, N-(6,7,8,9,10,11-HEXAHYDROBENZO[B]CYCLOOCTA[D]FURAN-2-YL)THIOPHENE-2-CARBOXAMIDE] | 600 to 800 |
| CCCC(=O)Nc1ccc2oc3c(c2c1)CCCC3 [Example 10, N-(6,7,8,9-TETRAHYDRO-DIBENZOFURAN-2-YL)-BUTYRAMIDE] | 10000 to 15000 |
| CCC(=O)Nc1ccc2oc3c(c2c1)CCCCC3 [Example 34, N-(7,8,9,10-TETRAHYDRO-6H-BENZO[B]CYCLOHEPTA[D]FURAN-2-YL)PROPANAMIDE] | 500 to 800 |
| CCCCCC(=O)Nc1ccc2oc3c(c2c1)CCCC3 [Example 22, N-(6,7,8,9-TETRAHYDRODIBENZO[B,D]FURAN-2-YL)HEXANAMIDE] | 1000 to 3000 |

Same assay, conditions: maximum percentage inhibition of contractile activity, 30 μM, strips stimulated with additional 15 mM KCl, read-out: % Inhibition of Contractility @ 30 μM

| Structure (SMILES) | inhibition at 30 µM [%] |
| --- | --- |
| O=C(Nc1ccc2oc3c(c2c1)CCCCC3)[C@@H]1CCCN1 [Example 57, N-7,8,9,10-TETRAHYDRO-6H-BENZO[B]CYCLOHEPTA[D]FURAN-2-YL-L-PROLINAMIDE] | 20 to 30 |
| CC(C)(C)c1ccc(C(=O)Nc2ccc3oc4c(c3c2)CCCCCC4)cc1 [Example 68, 4-TERT-BUTYL-N-(6,7,8,9,10,11-HEXAHYDROBENZO[B]CYCLOOCTA[D]FURAN-2-YL)BENZAMIDE] | 20 to 40 |
| Cc1cccc(C(=O)Nc2ccc3oc4c(c3c2)CCCCCC4)c1 [Example 69, N-(6,7,8,9,10,11-HEXAHYDROBENZO[B]CYCLOOCTA[D]FURAN-2-YL)-3-METHYLBENZAMIDE] | 10 to 20 |
| O=C(CCc1ccccc1)Nc1ccc2oc3c(c2c1)CCCC3 [Example 21, 3-PHENYL-N-(6,7,8,9-TETRAHYDRODIBENZO[B,D]FURAN-2-YL)PROPANAMIDE] | 10 to 30 |
| CCOC(=O)Nc1ccc2oc3c(c2c1)CCCCC3 [Example 85, ETHYL 7,8,9,10-TETRAHYDRO-6H-BENZO[B]CYCLOHEPTA[D]FURAN-2-YLCARBAMATE] | 40 to 60 |
| CC(CC(=O)Nc1ccc2oc3c(c2c1)CCCCCC3)CC(C)(C)C (centres unmarked) [Example 66, N-(6,7,8,9,10,11-HEXAHYDROBENZO[B]CYCLOOCTA[D]FURAN-2-YL)-3,5,5-TRIMETHYLHEXANAMIDE] | 5 to 20 |
| O=C(Nc1ccc2oc3c(c2c1)CCCC3)c1ccc(F)cc1 [Example 19, 4-FLUORO-N-(6,7,8,9-TETRAHYDRODIBENZO[B,D]FURAN-2-YL)BENZAMIDE] | 25 to 35 |
| O=C(Cc1ccc(F)cc1)Nc1ccc2oc3c(c2c1)CCCCC3 [Example 30, 2-(4-FLUOROPHENYL)-N-(7,8,9,10-TETRAHYDRO-6H-BENZO[B]CYCLOHEPTA[D]FURAN-2-YL)ACETAMIDE] | 30 to 50 |
| C[C@H](NC(=O)OCc1ccccc1)C(=O)Nc1ccc2oc3c(c2c1)CCCCC3 [Example 49, BENZYL [(1S)-1-METHYL-2-OXO-2-(7,8,9,10-TETRAHYDRO-6H-BENZO[B]CYCLOHEPTA[D]FURAN-2-YLAMINO)ETHYL]CARBAMATE] | 30 to 40 |
| O=C(Nc1ccc2oc3c(c2c1)CCCC3)c1ccc(Cl)cc1 [Example 17, 4-CHLORO-N-(6,7,8,9-TETRAHYDRO-DIBENZOFURAN-2-YL)-BENZAMIDE] | 25 to 30 |
| CN(C)C(=O)Nc1ccc2oc3c(c2c1)CCCCCC3 [Example 87, N′-(6,7,8,9,10,11-HEXAHYDROBENZO[B]CYCLOOCTA[D]FURAN-2-YL)-N,N-DIMETHYLUREA] | 25 to 35 |
| O=C(CO)Nc1ccc2oc3c(c2c1)CCCCCC3 [Example 80, N-6,7,8,9,10,11-HEXAHYDROBENZO[B]CYCLOOCTA[D]FURAN-2-YL-2-HYDROXYACETAMIDE] | 30 to 50 |
| CC(C)(C)OC(=O)N[C@@H](Cc1ccccc1)C(=O)Nc1ccc2oc3c(c2c1)CCCCC3 [Example 53, TERT-BUTYL [(1S)-1-BENZYL-2-OXO-2-(7,8,9,10-TETRAHYDRO-6H-BENZO[B]CYCLOHEPTA[D]FURAN-2-YLAMINO)ETHYL]CARBAMATE] | 15 to 25 |
| CC(C)OC(=O)Nc1ccc2oc3c(c2c1)CCCCCC3 [Example 88, ISOPROPYL 6,7,8,9,10,11-HEXAHYDROBENZO[B]CYCLOOCTA[D]FURAN-2-YLCARBAMATE] | 20 to 30 |
| O=C(Nc1ccc2oc3c(c2c1)CCCCC3)c1ccc(C(F)(F)F)cc1 [Example 38, N-7,8,9,10-TETRAHYDRO-6H-BENZO[B]CYCLOHEPTA[D]FURAN-2-yl-4-(TRIFLUOROMETHYL)BENZAMIDE] | 5 to 10 |

Same assay, conditions: read-out: % Inhibition of Contractility @ 30 μM

| Structure (SMILES) | inhibition at 30 µM [%] |
| --- | --- |
| O=C(Cc1ccccc1)Nc1ccc2oc3c(c2c1)CCCCCC3 [Example 75, N-(6,7,8,9,10,11-HEXAHYDROBENZO[B]CYCLOOCTA[D]FURAN-2-YL)-2-PHENYLACETAMIDE] | 30 to 40 |
| O=C(COCCO)Nc1ccc2oc3c(c2c1)CCCCC3 [Example 45, 2-(2-HYDROXYETHOXY)-N-7,8,9,10-TETRAHYDRO-6H-BENZO[B]CYCLOHEPTA[D]FURAN-2-YLACETAMIDE] | 15 to 25 |
| CC(C)(C)OCC(=O)Nc1ccc2oc3c(c2c1)CCCCC3 [Example 48, 2-TERT-BUTOXY-N-7,8,9,10-TETRAHYDRO-6H-BENZO[B]CYCLOHEPTA[D]FURAN-2-YLACETAMIDE] | 10 to 15 |
| CN(CCc1ccccn1)CC(=O)Nc1ccc2oc3c(c2c1)CCCCC3 [Example 42, N^2-METHYL-N^2-(2-PYRIDIN-2-YLETHYL)-N^1-7,8,9,10-TETRAHYDRO-6H-BENZO[B]CYCLOHEPTA[D]FURAN-2-YLGLYCINAMIDE] | 30 to 40 |
